# Test results published in US9676760B2, “Fused heterocyclic compounds as ion channel modulators” (Gilead Sciences, Inc., priority 2011, dated 2017).
# Assays:
# Type in all cases: cell-based
# [1] = target: T1, hNav 1.1 sodium channel isoform (Homo sapiens, UniProt P35498); assay: hNav1.1 whole-cell voltage-clamp assay; conditions: % Inhibition at 1 uM; use-dependent block, 10 Hz; read-out: NAV1.1* UDB-10HZ
# T1 construct: expressed in transfected cells; host or cells: HEK293, transient transfection (Qiagen Superfect)
# [2] = target: T2, wild-type human cardiac sodium channel, hNav1.5 (Homo sapiens, UniProt Q14524); assay: Late INa screening assay (QPatch whole cell patch clamp, HEK293)
# In short: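 HEK293 stably expressing hNav1.5 without beta subunits, recorded at 23-25° C. Late current was induced by 10 μM tefluthrin. Cells were depolarized from −120 mV to −20 mV for 250 ms at 0.1 Hz. Compounds were tested at 1 μM in extracellular solution, with baseline taken in 0Na-ECF; output is percent block of late INa.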
# [3] = target: T3, hNav 1.2 sodium channel isoform (Homo sapiens, UniProt Q99250); assay: hNav1.2 whole-cell voltage-clamp assay; conditions: use-dependent block, 10 Hz, read-out: NAV1.2* UDB-10HZ
# T3 construct: expressed in transfected cells
# Description: Wild-type (WT) cDNA stably transfected in Chinese hamster ovary (CHO) cells is used to record INa. Unless otherwise noted, all reagents are purchased from Sigma-Aldrich (St Louis, Mo., U.S.A.).
# Whole-cell voltage-clamp recordings are used to measure the biophysical properties of WT. […] Cells are allowed to stabilize for 10 min after establishment of the whole-cell configuration before current is measured. Series resistance is compensated 90% to assure that the command potential is reached within microseconds with a voltage error<2 mV. Leak currents are subtracted by using an online P/4 procedure and all currents are low-pass Bessel filtered at 5 kHz and digitized at 50 kHz.
# For clarity, representative ramp currents are low pass filtered off-line at 50 Hz. Specific voltage-clamp protocols assessing channel activation, fast inactivation and availability during repetitive stimulation are used. Results are presented as mean±SEM.
# Tonic block of peak current is measured using a step to −10 mV (20 ms) from a holding potential of −120 mV (0.2 Hz). Use-dependent block of peak current is measured during pulse number 300 of a pulse train (−10 mV, 5 ms, 300 pulses, 10 Hz or 25 Hz) from a holding potential of −120 mV. Two sequential pulse train stimulations are averaged to obtain mean current traces for each recording condition, which are then used for offline subtraction and analysis.
# For use-dependent studies, cells are stimulated with depolarizing pulse trains (−10 mV, 5 ms, 300 pulses, 10 and 25 Hz) from a holding potential of −120 mV. Currents are then normalized to the peak current recorded in response to the first pulse in each frequency train. For tonic block studies, peak current is evaluated in response to a 20 ms depolarization to −10 mV (0.2 Hz). […] Results are presented as mean±SEM.
# A stock solution of 10 mM compound of Formula I is prepared in 0.1 M HCl or DMSO. […] The final DMSO concentration was kept at 0.1% in all solutions. Direct application of the perfusion solution to the clamped cell is achieved using the Perfusion Pencil system (Automate, Berkeley, Calif.). Direct cell perfusion is driven by gravity at a flow rate of 350 μL/min using a 250 micron tip. This system sequesters the clamped cell within a perfusion stream and enables complete solution exchange within 1 second. The clamped cell is perfused continuously starting immediately after establishing the whole-cell configuration. Control currents are measured during control solution perfusion.
# Solutions are perfused for three minutes prior to current recordings to allow equilibrium (tonic) drug block. Tonic block of peak currents is measured from this steady-state condition. Three sequential current traces are averaged to obtain a mean current for each recording. The mean current traces are utilized for offline analysis. Use-dependent block of peak current is measured during pulse number 300 of the pulse train, (−10 mV, 5 ms, 300 pulses, 10 Hz) from a holding potential of −120 mV.
# [4] = target: T2, wild-type human cardiac sodium channel, hNav1.5; assay: Peak INa screening assay (tonic and use-dependent block); conditions: compound at 1 μM
# Description: The late sodium current (Late INa) and peak sodium current (Peak INa) assays are performed on an automated electrophysiology platform, QPatch 16× (Sophion Bioscience, Copenhagen, Denmark), which uses the whole cell patch clamp technique to measure currents through the cell membrane of up to 16 cells at a time. The assay uses an HEK293 (human embryonic kidney) cell line heterologously expressing the wild-type human cardiac sodium channel, hNav1.5, purchased from Millipore (Billerica, Mass.). No beta subunits were coexpressed with the Na channel alpha subunit. Cells are maintained with standard tissue culture procedures and stable channel expression is maintained with 400 μg/mL Geneticin in the culture medium. Cells isolated for use on QPatch are incubated for 5 minutes in Detachin 1×(Genlantis, San Diego, USA) at 37° C. to ensure that 80-90% of the cells are single and not part of a cell cluster. Experiments are carried out at 23-25° C.
# For both the Late INa and Peak INa assays, series resistance compensation is set to 100% and series resistance and whole-cell compensation are performed automatically. Currents are digitized at 25 kHz and low-pass filtered at 12 kHz and 10 kHz for the late and peak INa assays, respectively. Currents through open sodium channels are automatically recorded and stored in the Sophion Bioscience Oracle database (Sophion Bioscience, Copenhagen, Denmark). Analysis is performed using QPatch Assay and database software and data are compiled in Excel.
# Compound stocks are routinely made by the Gilead Sample Bank in plastic vials to 10 mM in dimethyl sulfoxide (DMSO). In some cases, when compounds are not soluble in DMSO, they are made in 100% ethanol. Stocks are sonicated as necessary. The extracellular solution for screening Late INa is composed of: 140 mM NaCl, 4 mM KCl, 1.8 mM CaCl2, 0.75 mM MgCl2 and 5 mM HEPES with pH adjusted to 7.4 using NaOH. The intracellular solution used to perfuse the inside of the cells for both the Late INa and Peak INa assays contains: 120 mM CsF, 20 mM CsCl, 5 mM EGTA, 5 mM HEPES and pH adjusted to 7.4 with CsOH. Compounds are diluted in extracellular solution to 1 μM in glass vials and then transferred to glass well plates before robotic addition to the cells. The 0 mM Na extracellular solution (0Na-ECF) used at the end of each experiment for the Late INa and Peak INa assays to measure baseline current contains: 140 mM N-methyl-D-glucamine; 4 mM KCl; 1.8 mM CaCl2; 0.75 mM MgCl2; 5 mM HEPES and pH was adjusted to 7.4 with HCl.
# Compounds were also evaluated for their effect in several other assays, including their effect on Peak INa. […] Since the peak INa in the cells used herein can be very large, introducing artifacts in the recording, the concentration of Na^+ in the bath can be reduced to 20 mM and a nonpermeant cation added to compensate for the Na^+ that was removed to maintain the osmolarity and ionic strength of the solution (see solution details below).
# A low stimulation frequency of 0.1 Hz was used to determine the effect of the test compound when the channel spent most of the time in the resting (closed) state and provides information about Tonic Block (TB). A higher stimulation frequency (3 Hz) was used to measure block of the channel when it spent more time in the activated and inactivated states and provided a measure of Use-Dependent Block (UDB). Use-dependent block refers to the accumulation of block with increased frequency of channel activation.
# [5] = HEK293, % Inhibition at 1 uM, read-out: Late INa*
# [6] = HEK293, percent block of late INa, compound at 1 μM, 10 μM Tefluthrin, read-out: Late INa 1 μM
# [7] = tonic block of peak INa, 0.1 Hz, read-out: Peak TB 1 μM
# [8] = use-dependent block of peak INa, 3 Hz, read-out: Peak UDB 1 μM
# T3 sequence (Q99250 whole entry, canonical isoform): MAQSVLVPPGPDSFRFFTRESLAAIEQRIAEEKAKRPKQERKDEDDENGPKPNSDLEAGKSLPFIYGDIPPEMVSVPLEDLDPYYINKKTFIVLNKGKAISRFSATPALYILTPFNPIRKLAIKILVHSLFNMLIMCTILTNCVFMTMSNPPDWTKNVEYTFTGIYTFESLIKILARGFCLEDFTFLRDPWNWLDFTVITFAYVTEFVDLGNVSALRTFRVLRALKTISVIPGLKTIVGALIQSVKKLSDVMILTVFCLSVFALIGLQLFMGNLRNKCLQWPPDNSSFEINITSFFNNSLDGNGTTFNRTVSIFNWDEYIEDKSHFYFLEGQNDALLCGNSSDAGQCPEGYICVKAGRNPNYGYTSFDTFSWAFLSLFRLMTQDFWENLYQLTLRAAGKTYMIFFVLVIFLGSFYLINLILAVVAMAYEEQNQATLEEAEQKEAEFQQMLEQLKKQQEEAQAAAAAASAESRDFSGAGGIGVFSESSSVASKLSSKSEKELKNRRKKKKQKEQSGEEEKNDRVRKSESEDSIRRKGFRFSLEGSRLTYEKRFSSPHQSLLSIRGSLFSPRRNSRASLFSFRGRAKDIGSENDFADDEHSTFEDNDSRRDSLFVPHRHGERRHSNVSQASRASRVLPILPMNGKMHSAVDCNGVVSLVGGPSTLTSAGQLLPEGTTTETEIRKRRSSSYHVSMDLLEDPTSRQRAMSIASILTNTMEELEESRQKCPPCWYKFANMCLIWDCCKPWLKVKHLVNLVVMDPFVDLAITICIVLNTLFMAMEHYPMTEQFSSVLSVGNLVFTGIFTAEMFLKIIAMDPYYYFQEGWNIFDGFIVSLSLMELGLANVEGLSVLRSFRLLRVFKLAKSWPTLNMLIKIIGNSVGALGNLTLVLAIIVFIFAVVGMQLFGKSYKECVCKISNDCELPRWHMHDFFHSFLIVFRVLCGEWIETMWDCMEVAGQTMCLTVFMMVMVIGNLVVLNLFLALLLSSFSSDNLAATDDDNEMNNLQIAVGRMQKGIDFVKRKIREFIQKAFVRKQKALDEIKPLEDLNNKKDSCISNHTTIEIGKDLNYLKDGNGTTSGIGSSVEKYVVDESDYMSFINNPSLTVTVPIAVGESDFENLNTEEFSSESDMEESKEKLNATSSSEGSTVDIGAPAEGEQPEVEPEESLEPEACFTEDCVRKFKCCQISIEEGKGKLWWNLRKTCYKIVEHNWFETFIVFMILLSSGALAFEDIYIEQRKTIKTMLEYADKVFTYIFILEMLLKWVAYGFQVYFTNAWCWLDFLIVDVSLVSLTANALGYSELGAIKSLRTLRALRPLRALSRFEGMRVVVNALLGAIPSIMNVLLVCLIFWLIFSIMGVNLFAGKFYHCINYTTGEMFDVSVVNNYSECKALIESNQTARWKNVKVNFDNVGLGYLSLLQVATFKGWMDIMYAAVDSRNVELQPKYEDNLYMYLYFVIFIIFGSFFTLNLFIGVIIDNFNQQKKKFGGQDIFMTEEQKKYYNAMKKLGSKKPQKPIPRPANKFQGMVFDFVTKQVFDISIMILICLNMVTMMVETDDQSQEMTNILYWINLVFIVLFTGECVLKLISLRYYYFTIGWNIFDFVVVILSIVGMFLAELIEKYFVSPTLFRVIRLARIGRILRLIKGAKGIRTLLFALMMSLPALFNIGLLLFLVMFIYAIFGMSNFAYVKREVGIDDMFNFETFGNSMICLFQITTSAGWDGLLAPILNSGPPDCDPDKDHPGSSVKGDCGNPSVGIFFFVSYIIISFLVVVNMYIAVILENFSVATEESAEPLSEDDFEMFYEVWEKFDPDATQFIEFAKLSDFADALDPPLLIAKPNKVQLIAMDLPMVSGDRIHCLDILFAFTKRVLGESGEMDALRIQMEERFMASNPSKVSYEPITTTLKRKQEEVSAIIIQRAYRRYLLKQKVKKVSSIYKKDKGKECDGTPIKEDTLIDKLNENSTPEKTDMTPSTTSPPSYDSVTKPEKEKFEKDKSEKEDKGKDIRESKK
# T2 sequence (Q14524 whole entry): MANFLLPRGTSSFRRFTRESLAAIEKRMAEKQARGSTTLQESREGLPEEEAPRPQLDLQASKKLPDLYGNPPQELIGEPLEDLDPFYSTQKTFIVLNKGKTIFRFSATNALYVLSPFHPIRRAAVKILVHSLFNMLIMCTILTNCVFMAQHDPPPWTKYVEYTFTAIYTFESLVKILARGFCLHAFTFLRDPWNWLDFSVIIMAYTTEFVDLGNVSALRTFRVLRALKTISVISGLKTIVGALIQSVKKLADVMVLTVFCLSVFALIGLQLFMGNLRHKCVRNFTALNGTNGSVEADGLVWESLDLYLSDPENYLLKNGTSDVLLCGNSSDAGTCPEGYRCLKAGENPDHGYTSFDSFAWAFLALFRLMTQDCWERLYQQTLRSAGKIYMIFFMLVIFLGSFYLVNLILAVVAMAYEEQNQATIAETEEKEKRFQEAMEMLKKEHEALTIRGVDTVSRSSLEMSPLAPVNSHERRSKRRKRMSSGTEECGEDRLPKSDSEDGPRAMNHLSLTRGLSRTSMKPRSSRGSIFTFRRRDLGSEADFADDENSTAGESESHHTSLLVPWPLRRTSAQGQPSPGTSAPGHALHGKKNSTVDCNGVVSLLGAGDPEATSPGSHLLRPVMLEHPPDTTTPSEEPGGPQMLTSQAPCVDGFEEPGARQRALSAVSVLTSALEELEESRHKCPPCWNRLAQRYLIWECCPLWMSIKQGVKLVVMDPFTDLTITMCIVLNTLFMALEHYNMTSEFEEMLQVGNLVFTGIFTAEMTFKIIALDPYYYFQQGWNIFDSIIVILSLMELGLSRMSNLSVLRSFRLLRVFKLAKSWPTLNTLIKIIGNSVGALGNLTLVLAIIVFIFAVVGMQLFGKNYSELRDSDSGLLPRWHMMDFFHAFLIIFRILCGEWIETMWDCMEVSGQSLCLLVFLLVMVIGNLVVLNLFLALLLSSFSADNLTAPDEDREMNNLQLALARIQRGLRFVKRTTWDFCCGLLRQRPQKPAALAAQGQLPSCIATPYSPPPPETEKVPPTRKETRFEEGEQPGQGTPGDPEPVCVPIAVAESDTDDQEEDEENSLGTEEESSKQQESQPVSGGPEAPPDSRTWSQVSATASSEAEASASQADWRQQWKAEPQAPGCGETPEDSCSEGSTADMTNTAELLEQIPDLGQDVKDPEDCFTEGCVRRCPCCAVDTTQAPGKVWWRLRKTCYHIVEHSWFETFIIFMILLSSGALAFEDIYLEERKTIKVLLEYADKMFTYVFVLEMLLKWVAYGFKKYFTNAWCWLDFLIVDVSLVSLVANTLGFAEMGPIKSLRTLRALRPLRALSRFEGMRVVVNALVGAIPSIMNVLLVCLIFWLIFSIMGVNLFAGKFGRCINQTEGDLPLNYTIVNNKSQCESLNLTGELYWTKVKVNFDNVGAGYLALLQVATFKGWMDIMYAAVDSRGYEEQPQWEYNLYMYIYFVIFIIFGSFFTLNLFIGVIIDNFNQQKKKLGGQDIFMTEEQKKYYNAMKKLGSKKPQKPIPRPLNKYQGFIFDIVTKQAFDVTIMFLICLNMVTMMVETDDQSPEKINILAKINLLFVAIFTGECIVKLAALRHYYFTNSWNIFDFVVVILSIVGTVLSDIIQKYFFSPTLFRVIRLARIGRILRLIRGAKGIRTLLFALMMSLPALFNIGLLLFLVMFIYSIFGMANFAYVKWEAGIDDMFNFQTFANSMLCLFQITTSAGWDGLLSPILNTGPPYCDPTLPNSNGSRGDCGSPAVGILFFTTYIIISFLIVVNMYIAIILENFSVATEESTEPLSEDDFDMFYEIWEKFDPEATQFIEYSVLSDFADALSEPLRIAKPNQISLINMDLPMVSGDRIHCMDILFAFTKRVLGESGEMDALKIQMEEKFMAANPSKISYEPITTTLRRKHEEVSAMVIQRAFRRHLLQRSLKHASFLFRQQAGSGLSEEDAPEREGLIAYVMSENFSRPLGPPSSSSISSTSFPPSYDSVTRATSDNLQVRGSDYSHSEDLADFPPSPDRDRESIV
smiles,measurement,setting,value
"CC1CC=C(c2ccc3c(c2)C(=O)N(Cc2ncccn2)CCO3)CC1 (centres unmarked) [Compound V-5, 7-(4-methylcyclohex-1-enyl)-4-(pyrimidin-2-ylmethyl)-3,4-dihydrobenzo[f][1,4]oxazepin-5(2H)-one]",inhibition at 1 µM,[1],-18%
same,inhibition at 1 µM,[2]; [5],49%
same,inhibition at 1 µM,[2]; [6],49%
same,inhibition at 1 µM,[3],3%
same,inhibition at 1 µM,[4]; [7],5%
same,inhibition at 1 µM,[4]; [8],5%
"O=C1c2cc(-c3ccc(OC(F)(F)F)cc3)ccc2OCCN1Cc1ccc2ccccc2n1 [II-7, 4-(quinolin-2-ylmethyl)-7-(4-(trifluoromethoxy)phenyl)-3,4-dihydrobenzo[f][1,4]oxazepin-5(2H)-one]",inhibition at 1 µM,[1],0%
same,inhibition at 1 µM,[2]; [5],34%
same,inhibition at 1 µM,[2]; [6],34%
same,inhibition at 1 µM,[3],13%
"O=C1c2cc(-c3ccc(OC(F)(F)F)cc3)ccc2OCCN1CC1CC1 [II-10, 4-(cyclopropylmethyl)-7-(4-(trifluoromethoxy)phenyl)-3,4-dihydrobenzo[f][1,4]oxazepin-5(2H)-one]",inhibition at 1 µM,[1],-4%
same,inhibition at 1 µM,[2]; [5],43%
same,inhibition at 1 µM,[2]; [6],43%
same,inhibition at 1 µM,[3],9%
same,inhibition at 1 µM,[4]; [7],9%
same,inhibition at 1 µM,[4]; [8],2%
"N#Cc1cccc(CN2CCOc3ccc(-c4ccc(OC(F)(F)F)cc4)cc3C2=O)n1 [II-14, 6-((5-oxo-7-(4-(trifluoromethoxy)phenyl)-2,3-dihydrobenzo[f][1,4]oxazepin-4(5H)-yl)methyl)picolinonitrile]",inhibition at 1 µM,[1],16%
same,inhibition at 1 µM,[2]; [5],47%
same,inhibition at 1 µM,[2]; [6],47%
same,inhibition at 1 µM,[3],19%
same,inhibition at 1 µM,[4]; [7],7%
same,inhibition at 1 µM,[4]; [8],6%
"COc1cc(OC)nc(CN2CCOc3ccc(-c4ccc(OC(F)(F)F)cc4)cc3C2=O)n1 [II-42, 4-((4,6-dimethoxypyrimidin-2-yl)methyl)-7-(4-(trifluoromethoxy)phenyl)-3,4-dihydrobenzo[f][1,4]oxazepin-5(2H)-one]",inhibition at 1 µM,[1],2%
same,inhibition at 1 µM,[2]; [5],34%
same,inhibition at 1 µM,[2]; [6],34%
same,inhibition at 1 µM,[3],12%
"CN1CCOc2ccc(-c3ccc(OC(F)(F)F)cc3)cc2C1=O [II-46, 4-methyl-7-(4-(trifluoromethoxy)phenyl)-3,4-dihydrobenzo[f][1,4]oxazepin-5(2H)-one]",inhibition at 1 µM,[1],2%
same,inhibition at 1 µM,[2]; [5],25%
same,inhibition at 1 µM,[2]; [6],25%
same,inhibition at 1 µM,[3],16%
"COc1cccnc1CN1CCOc2ccc(-c3ccc(OC(F)(F)F)cc3)cc2C1=O [II-143, 4-((3-methoxypyridin-2-yl)methyl)-7-(4-(trifluoromethoxy)phenyl)-3,4-dihydrobenzo[f][1,4]oxazepin-5(2H)-one]",inhibition at 1 µM,[1],29%
same,inhibition at 1 µM,[2]; [5],65%
same,inhibition at 1 µM,[2]; [6],65%
same,inhibition at 1 µM,[3],44%
"Cc1ccnc(CN2CCOc3cnc(-c4ccc(OC(F)(F)F)cc4)cc3C2=O)n1 [XII-8, 4-((4-methylpyrimidin-2-yl)methyl)-7-(4-(trifluoromethoxy)phenyl)-3,4-dihydropyrido[4,3-f][1,4]oxazepin-5(2H)-one]",inhibition at 1 µM,[1],11%
same,inhibition at 1 µM,[2]; [5],36%
same,inhibition at 1 µM,[2]; [6],36%
same,inhibition at 1 µM,[3],11%
"O=C1c2cc(Nc3ccc(OC(F)(F)F)cc3)ccc2OCCN1Cc1ccccn1 [XIII-4, 4-(pyridin-2-ylmethyl)-7-(4-(trifluoromethoxy)phenylamino)-3,4-dihydrobenzo[f][1,4]oxazepin-5(2H)-one]",inhibition at 1 µM,[2]; [6],51%
same,inhibition at 1 µM,[4]; [7],8%
same,inhibition at 1 µM,[4]; [8],9%
"O=C1c2cc(Nc3ccc(C(F)(F)F)cc3)ccc2OCCN1Cc1ccccn1 [XIII-6, 4-(pyridin-2-ylmethyl)-7-(4-(trifluoromethyl)phenylamino)-3,4-dihydrobenzo[f][1,4]oxazepin-5(2H)-one]",inhibition at 1 µM,[2]; [6],60%
same,inhibition at 1 µM,[4]; [7],8%
same,inhibition at 1 µM,[4]; [8],8%
